Patent US20040197932A1, “Bio-vehicle, biosensor and biotransducer system” (priority 2003, published 2004)

What follows are molecules tested on major urinary protein (MUP) (assay: QCM ligand-binding test: shift of resonant frequency on binding of evaporated ligand to immobilized MUP). Conditions: MUP immobilized on 10 MHz AT-cut QCM chip; odorant sample evaporated at 50° C. and pumped into detection chamber.
Design: species or system mouse
Experimental: The preferred electronic nose technology of the present invention is piezoelectric-based. Measurements are performed by detecting the binding of analytes (ligands) onto the sensing elements immobilized on piezoelectric materials, e.g., quartz crystal. The adsorption of ligand induces a shift in the oscillation frequency proportional to the mass of the encountered ligand. The operating performance of the present invention is described as bellow:
Gold electrodes of quartz crystal microbalance (QCM) surface are cleaned by immersing in 1.2 N NaOH and then in 1.2 N HCl. After rinsing and drying, the QCM electrodes are soaked in 1 mM 2-aminoethanethiol/DMSO solution for 12 hours and washed by double distilled water for 10 min. Then the QCM electrodes are dried in oven and dripped with 4 μl of 2.5% glutaldehyde for 1 hour. Two μl of 1% polyethylenimine/methanol (PEI/MeOH) solution are added onto activated surface of QCM in a closed chamber at room temperature for 12 hours. Finally, the QCM chips are washed two times and dried in oven.
Activated QCM chips are dipped in 2.5% glutaldehyde solution for 1 hour, and then MUP solution (20 μg/ml in 10 mM phosphate buffer, pH 7.4) are added and kept for 1 hour. Blocking the activated surface of QCM chips is performed by 100 mM glycine.
A sample is respectively applied in a syringe and kept in an oven at 50° C. An AT-cut QCM device with basic resonant frequency of 10 MHz is employed to determine the adsorption of odorant vapor. The evaporated odorant sample is pumped into the detection chamber of QCM and the shift of resonant frequency is recorded.
A variety of ligands are surveyed according to the above procedures. Table I lists the changes of signal in frequency upon the bindings of different ligands, including phenylacetate, propylbutyrate, hexylbutyrate, benzylbutyrate, propyltiglate, hexyltiglate, and benzyltiglate.

Change of Signal (in frequency f) | Structure (SMILES)
43 | CCCC(=O)OCc1ccccc1 [benzylbutyrate]
43 | C/C=C(\C)C(=O)OCc1ccccc1 [benzyltiglate]
23 | CCCCCCOC(=O)CCC [hexylbutyrate]
55 | C/C=C(\C)C(=O)OCCCCCC [hexyltiglate]
29 | C/C=C(\C)C(=O)OCCC [propyltiglate]

Structure (SMILES) | Change of Signal (in frequency f)
CCCOC(=O)CCC [propylbutyrate] | 26
